Test results: US20080108665A1, “Use of N-substituted sulfoximines for control of invertebrate pests” (priority 2006, published 2008)

Assays:
[1] = test system: Cotton Aphid (Aphis gossypii); test: Cotton aphid seed coating assay on squash; format: in vivo; details: 3 mg/seed, 10% SC formulation, counted 3 days after infestation
Protocol: Selected compounds of the invention were tested in assays designed to evaluate its systemic activity for control of cotton aphid through seed-coating prior to planting. The crop used in these assays was a hybrid squash (var. Pic-N-Pic). Test compound was formulated in a 10% SC formulation. Ten squash seeds were used for each treatment. Seeds were placed on waxed paper and a pipette was used to apply the original or diluted formulations to each seed. The air-dried, treated seeds were individually planted into 3 inch pots containing metro mix. The pots were placed on a California cart and moved into the greenhouse for sub watering only. At the specified number of days after planting, the plants were infested with approximately 40 wingless aphids. The infested plants were kept in an environmental holding room (23° C., 40% RH, 16 hr light: 8 hr dark) for three days before the number of live aphids was counted under a microscope. Calculations for % Control were based on a corrected basis compared to the populations on the reference plants germinated from seeds treated with the formulation blank.
Corrected % Control=100*(X−Y)/X • where X=No. of live aphids on reference plants • Y=No. of live aphids on treated plants Assay 1. Compounds (1) and (2) were tested at 3 mg/seed. The original 10% SC formulation was used. One half (15 ul) of the sample was spread onto one side of a seed. Once dried (approximately 1 hr), the seed was flipped over and the 2nd half of sample was spread over the other side. Fourteen and 25 days after planting, aphid infestations were conducted on the 1st and 2nd true leaves, respectively.
Assay 2. Compound (2) was tested at 0.1 and 1 mg/seed. For the 1 mg/seed treatment, the original 10% formulation was used. For the 0.1 mg/seed treatment, the 10% formulation were diluted 10× with DI water before application. One half (5 ul) of the sample was spread onto one side of a seed. Once dried (approximately 1 hr), the seed was flipped over and the 2nd half of sample was spread over the other side. Thirteen days after planting, the 1st leaf was infested.

[2] = test system: sweet potato whitefly, Bemisia tabaci; details: more recently-collected strains of whitefly, late 1990s; cited from earlier work
[3] = test system: Green Peach Aphid (Myzus persicae); test: Green peach aphid root uptake assay on pepper; format: in vivo; details: 3 days after infestation
Protocol: These assays were designed to evaluate the possibility of using the compounds identified in the foregoing examples for applications such as nursing trays, transplanting water and/or irrigation. Systemic activity against green peach aphid was evaluated in a root uptake assay. Bell peppers (Capsicum annum var. California Wonder) were used as test plants seeded and grown in rock wool plugs. Plants were grown to expanding 1st true leaf stage. The rock wool plugs containing individual plants were placed in 1-ounce cups and surrounded with white clean sand. Five plants were used for each treatment. A volume of 5 mL of the test solutions was applied to each cup (each plant). After insecticide application, the seedlings were infested with green peach aphids and held in a growth chamber (25° C., 50% RH, 16 hr light: 8 hr dark). Number of live aphids on each plant was counted at 3 days after infestation. Calculations for % Control were based on a corrected basis compared to the populations on the reference plants.
Corrected % Control=100*(X−Y)/X • where X=No. of live aphids on reference plants • Y=No. of live aphids on treated plants Assay 1: Compound (3) was tested at a dose range of 5-500 μg/plant. A stock solution of 1000 ppm (1 mg/mL) was made by dissolving technical test compound in acetone:ethanol (90:10). The highest test concentration (100 ppm, 500 μg/5 ml) was prepared by diluting 2.5 mL stock solution with 22.5 mL DI water. The lower test concentrations (25 mL) were similarly prepared by diluting aliquots of the stock solution with DI water. Reference plants received DI water only.
Assay 2: Compound (2) was tested at a dose range of 0.08-50 μg/plant. A stock solution of 1000 ppm was made by dissolving 2 mg of technical test compound in 2 mL acetone. The highest test concentration (10 ppm, 50 μg/5 ml) was prepared by diluting 0.32 mL stock solution with 1.6 mL acetone and 30.08 mL DI water, containing 6% acetone. Lower test concentrations were prepared by sequentially diluting 6.5 mL higher concentration (start from the 10 ppm test solution) with 26.0 ml acetone: DI water (6:94). The solvent/diluent system (6% acetone) was used as reference.

Q: For CS(=O)(Cc1ccc(Cl)nc1)=NC#N (stereo not drawn) [Compound 1, [(6-Chloropyridin-3-yl)methyl](methyl)oxido-λ^4-sulfanylidenecyanamide], which “% Control, seed coating systemic 1st leaf, 14 days after planting” value [1] is on record?
A: 100%

Q: And the “% Control, seed coating systemic 2nd leaf, 25 days after planting” value [1]?
A: 99.6%

Q: For O=[N+]([O-])NC1=NCCN1Cc1ccc(Cl)nc1 [imidacloprid, Imidacloprid], which resistance [2] is on record?
A: more than 100 fold

Q: Which “% Control, root uptake systemic” value ([3]; 5 μg/plant) does the source give for N#CN=S1(=O)CCCC1Cc1ccc(Cl)nc1 (stereo not drawn) [Compound 3, 2-[(6-chloropyridin-3-yl)methyl]-1-oxidotetrahydro-1H-1-λ^4-thien-1-ylidenecyanamide] here?
A: 10%

Q: What about the “% Control, root uptake systemic” value ([3]; 50 μg/plant) of the same molecule?
A: 88%

Q: What about the “% Control, root uptake systemic” value ([3]; 500 μg/plant) of the same molecule?
A: 100%
